Each structure is given as a SMILES string. Structures can show the parent of a compound that is named as a salt.

These results are taken from US10047104B2, “Bicyclic heterocyclyl derivatives as IRAK4 inhibitors” (Aurigene Discovery Technologies Limited, priority 2014, dated 2018).

This test concerns the target T1, recombinant IRAK-4 kinase (Homo sapiens, UniProt Q9NWZ3).
T1 construct: purchased Millipore, USA
T1 sequence (Q9NWZ3 1-460): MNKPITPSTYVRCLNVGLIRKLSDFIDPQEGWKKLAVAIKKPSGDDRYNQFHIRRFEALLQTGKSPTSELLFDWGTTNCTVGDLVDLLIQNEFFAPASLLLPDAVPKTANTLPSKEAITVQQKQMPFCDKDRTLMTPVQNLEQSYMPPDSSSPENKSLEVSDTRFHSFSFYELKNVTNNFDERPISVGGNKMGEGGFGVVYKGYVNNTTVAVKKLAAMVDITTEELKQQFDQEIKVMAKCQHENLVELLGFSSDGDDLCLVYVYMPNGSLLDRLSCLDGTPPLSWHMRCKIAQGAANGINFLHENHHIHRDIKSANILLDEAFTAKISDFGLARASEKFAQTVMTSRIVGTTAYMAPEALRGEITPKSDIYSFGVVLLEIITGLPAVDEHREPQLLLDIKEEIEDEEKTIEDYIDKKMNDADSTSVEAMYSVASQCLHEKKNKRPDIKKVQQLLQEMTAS
As to the kind of experiment: IRAK-4 Biochemical Assay (TR-FRET). The following applies: 5 ng IRAK-4 kinase, 100 nM Biotin Histone H3, 20 μM ATP, 30 minutes pre-incubation, read-out: IC50 values for IRAK4 activity. The procedure, abridged:
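Recombinant IRAK-4 (5 ng) pre-incubated with compound 30 min at room temperature in Tris-HCl pH 7.5 with MgCl2/MnCl2, then 100 nM biotin-histone H3 and 20 μM ATP added for 30 min. Stopped with EDTA; phospho-Ser10 read by TR-FRET (Eu-antibody/APC-streptavidin).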
For orientation: In TR-FRET formats the signal depends on donor and acceptor labels being close together.
`Cc1cc(-c2nc(C(=O)Nc3cc4oc(N5CCOCC5)nc4nc3N3CCCC3)co2)ccn1` [Example 112, 2-(2-methylpyridin-4-yl)-N-(2-morpholino-5-(pyrrolidin-1-yl)oxazolo[4,5-b]pyridin-6-yl)oxazole-4-carboxamide]: the concentration for half-maximal inhibition (IC50) is above 100 nM.

As to `Cc1cc(-c2ccc(C(=O)Nc3cc4oc(N5CCOCC5)nc4nc3N3CCCCC3)o2)ccn1` [Example 113, 5-(2-methylpyridin-4-yl)-N-(2-morpholino-5-(piperidin-1-yl)oxazolo[4,5-b]pyridin-6-yl)furan-2-carboxamide], the half-maximal inhibitory concentration (IC50) is below 50 nM.

As to `Cc1cc(-c2ccc(C(=O)Nc3cc4oc(N5CCOCC5)nc4nc3N3CCC(O)CC3)o2)ccn1` [Example 114, N-(5-(4-hydroxypiperidin-1-yl)-2-morpholinooxazolo[4,5-b]pyridin-6-yl)-5-(2-methylpyridin-4-yl)furan-2-carboxamide], the concentration for half-maximal inhibition (IC50) is below 50 nM.

`Cc1cc(-c2ccc(C(=O)Nc3cc4oc(N5CCOCC5)nc4nc3N3CCC[C@@H](O)C3)o2)ccn1` [Example 115, (R)—N-(5-(3-hydroxypiperidin-1-yl)-2-morpholinooxazolo[4,5-b]pyridin-6-yl)-5-(2-methylpyridin-4-yl)furan-2-carboxamide]: the IC50 was below 50 nM.

Regarding `Cc1cc(-c2nc(C(=O)Nc3cc4oc(N5CCOCC5)nc4nc3-c3ccoc3)co2)ccn1` [Example 116, N-(5-(furan-3-yl)-2-morpholinooxazolo[4,5-b]pyridin-6-yl)-2-(2-methylpyridin-4-yl)oxazole-4-carboxamide], the IC50 is below 50 nM.

For the molecule `Cc1cc(-c2nc(C(=O)Nc3cc4sc(N5CCOCC5)nc4nc3N3CCC[C@H](N)C3)co2)ccn1` [Example 120, (S)—N-(5-(3-aminopiperidin-1-yl)-2-morpholinothiazolo[4,5-b]pyridin-6-yl)-2-(2-methylpyridin-4-yl)oxazole-4-carboxamide hydrochloride], the IC50 was below 50 nM.

In the case of `Cc1cc(-c2nc(C(=O)Nc3cc4sc(N5CCOCC5)nc4nc3-c3cn[nH]c3)co2)ccn1` [Example 121, 2-(2-methylpyridin-4-yl)-N-(2-morpholino-5-(1H-pyrazol-4-yl)thiazolo[4,5-b]pyridin-6-yl)oxazole-4-carboxamide], the IC50 was below 50 nM.

As for `Cc1cc(-c2nc(C(=O)Nc3cc4sc(N5CCOCC5)nc4nc3-c3ccc(F)nc3)co2)ccn1` [Example 122, N-(5-(6-fluoropyridin-3-yl)-2-morpholinothiazolo[4,5-b]pyridin-6-yl)-2-(2-methylpyridin-4-yl)oxazole-4-carboxamide], the IC50 was below 50 nM.

Regarding `Cc1cc(-c2nc(C(=O)Nc3cc4sc(N5CCOCC5)nc4nc3N3C4CCC3CC(O)C4)co2)ccn1` (stereo not shown) [Example 123, N-(5-(3-hydroxy-8-azabicyclo[3.2.1]octan-8-yl)-2-morpholinothiazolo[4,5-b]pyridin-6-yl)-2-(2-methylpyridin-4-yl)oxazole-4-carboxamide], the 50% inhibitory concentration (IC50) was below 50 nM.

Regarding `Cc1cc(-c2nc(C(=O)Nc3cc4sc(N5CCCC(O)C5)nc4nc3N3CCCCC3)co2)ccn1` (stereo not shown) [Example 124, N-(2-(3-hydroxypiperidin-1-yl)-5-(piperidin-1-yl)thiazolo[4,5-b]pyridin-6-yl)-2-(2-methylpyridin-4-yl)oxazole-4-carboxamide], the 50% inhibitory concentration (IC50) is below 50 nM.

With `CC(=O)Nc1cc(-c2nc(C(=O)Nc3cc4sc(N5CCOCC5)nc4nc3N3CCC(O)CC3)co2)ccn1` [Example 125, 2-(2-acetamidopyridin-4-yl)-N-(5-(4-hydroxypiperidin-1-yl)-2-morpholinothiazolo[4,5-b]pyridin-6-yl)oxazole-4-carboxamide], the IC50 is below 50 nM.

Take `Cc1cc(-c2nc(C(=O)Nc3cc4sc(N5CCCC(O)C5)nc4nc3N3CCC(O)CC3)co2)ccn1` (stereo not shown) [Example 126, N-(2-(3-hydroxypiperidin-1-yl)-5-(4-hydroxypiperidin-1-yl)thiazolo[4,5-b]pyridin-6-yl)-2-(2-methylpyridin-4-yl)oxazole-4-carboxamide]: the IC50 was below 50 nM.

Take `CC(=O)Nc1cc(-c2nc(C(=O)Nc3cc4sc(N5CCOCC5)nc4nc3N3CCCC(O)C3)co2)ccn1` (stereo not shown) [Example 127, 2-(2-acetamidopyridin-4-yl)-N-(5-(3-hydroxypiperidin-1-yl)-2-morpholinothiazolo[4,5-b]pyridin-6-yl)oxazole-4-carboxamide]: the half-maximal inhibitory concentration (IC50) is below 50 nM.

With `Nc1cc(-c2nc(C(=O)Nc3cc4sc(N5CCOCC5)nc4nc3N3CCCC(O)C3)co2)ccn1` (stereo not shown) [Example 128, 2-(2-aminopyridin-4-yl)-N-(5-(3-hydroxypiperidin-1-yl)-2-morpholinothiazolo[4,5-b]pyridin-6-yl)oxazole-4-carboxamide hydrochloride], the concentration for half-maximal inhibition (IC50) was below 50 nM.

Consider `Nc1cc(-c2ccc(C(=O)Nc3cc4sc(N5CCOCC5)nc4nc3N3CCC(O)CC3)o2)ccn1` [Example 129, 5-(2-aminopyridin-4-yl)-N-(5-(4-hydroxypiperidin-1-yl)-2-morpholinothiazolo[4,5-b]pyridin-6-yl)furan-2-carboxamide hydrochloride], for which the IC50 is below 50 nM.

As to `Nc1cc(-c2nc(C(=O)Nc3cc4sc(N5CCOCC5)nc4nc3N3CCC(O)CC3)co2)ccn1` [Example 130, 2-(2-aminopyridin-4-yl)-N-(5-(4-hydroxypiperidin-1-yl)-2-morpholinothiazolo[4,5-b]pyridin-6-yl)oxazole-4-carboxamide hydrochloride], the IC50 is below 50 nM.

As to `Nc1cc(-c2nc(C(=O)Nc3cc4sc(N5CCOCC5)nc4nc3N3CCC(F)CC3)co2)ccn1` [Example 131, 2-(2-aminopyridin-4-yl)-N-(5-(4-fluoropiperidin-1-yl)-2-morpholinothiazolo[4,5-b]pyridin-6-yl)oxazole-4-carboxamide hydrochloride], the 50% inhibitory concentration (IC50) was below 50 nM.

As to `Cc1cc(-c2nc(C(=O)Nc3cc4sc(N5CCCC(O)C5)nc4nc3N3CCC(F)CC3)co2)ccn1` (stereo not shown) [Example 133, N-(5-(4-fluoropiperidin-1-yl)-2-(3-hydroxypiperidin-1-yl)thiazolo[4,5-b]pyridin-6-yl)-2-(2-methylpyridin-4-yl)oxazole-4-carboxamide], the IC50 was below 50 nM.

As for `Cc1cc(-c2nc(C(=O)Nc3cc4sc(N5CCCC(O)C5)nc4nc3N3CCC(N)CC3)co2)ccn1` (stereo not shown) [Example 134, N-(5-(4-aminopiperidin-1-yl)-2-(3-hydroxypiperidin-1-yl)thiazolo[4,5-b]pyridin-6-yl)-2-(2-methylpyridin-4-yl)oxazole-4-carboxamide hydrochloride], the IC50 is below 50 nM.

What is called IC50 is the concentration at which inhibition is half-maximal.
